SMILES strings stand for the structures.

In assay [1] the test system is MDA-MB-231 cells. Description: Cell proliferation assay (CellTiter-Glo), MDA-MB-231. The settings on record: Homo sapiens, MDA-MB-231, 72 h, 72 h treatment, Celltiter-Glo luminescence. The class given is cell-based. A digest of the protocol: (§1)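 MDA-MB-231 (RPMI-1640/10% FBS) and EVSA-T (MEM/10% FBS) cells, 10000 cells/well, exposed 72 h to compound at […]. Viability read by CellTiter-Glo luminescence after 15 min at room temperature. IC50 from control-normalised curve fitting.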
(Cellular ATP, detected with luciferase, serves as a proxy for viable cell number.)

The subject of assay [2] is EVSA-T cells. Description: Cell proliferation assay (CellTiter-Glo), EVSA-T. The class given is cell-based. The settings on record: Homo sapiens, EVSA-T, 72 h, 72 h treatment, Celltiter-Glo luminescence. A digest of the protocol: as §1

By IC50 is commonly meant the concentration that inhibits the measured activity by half. For `C[C@@H]1CN(CC(=O)N2CC(C)(C)c3c2cc(Cc2ccc(F)cc2F)c2nn(C(C)(C)CO)c(=O)n32)[C@@H](CN2CCOC[C@H]2C)CN1` [Compound 275, 4-(2,4-difluorobenzyl)-2-(1-hydroxy-2-methylpropan-2-yl)-8,8-dimethyl-6-(2-((2R,5R)-5-methyl-2-(((R)-3-methylmorpholino)methyl)piperazin-1-yl)acetyl)-2,6,7,8-tetrahydro-1H-pyrrolo[2,3-e][1,2,4]triazolo[4,3-a]pyridin-1-one], the IC50 in assay [1] turned out to be 9 nM; in assay [2] it was 3.1 nM.

In the case of `CC(C)NC(=O)c1nc2c(Cc3ccc(F)cc3)cc3c(n2n1)C(C)(C)CN3C(=O)CN1C[C@@H](C)NC[C@@H]1CN1CCOC[C@H]1C` [Compound 256, 4-(4-fluorobenzyl)-N-isopropyl-8,8-dimethyl-6-(2-((2R,5R)-5-methyl-2-(((R)-3-methylmorpholino)methyl)piperazin-1-yl)acetyl)-7,8-dihydro-6H-pyrrolo[2,3-e][1,2,4]triazolo[1,5-a]pyridine-2-carboxamide], the IC50 in assay [1] was 70 nM; in assay [2] it was 8.9 nM.

Regarding `CC(O)Cn1nc2c(Cc3ccc(F)cc3)cc3c(n2c1=O)C(C)(C)CN3C(=O)CN1C[C@@H](C)NC[C@@H]1CN1CCOC[C@H]1C` (stereo partly drawn) [Compound 269, 4-(4-fluorobenzyl)-2-(2-hydroxypropyl)-8,8-dimethyl-6-(2-((2R,5R)-5-methyl-2-(((R)-3-methylmorpholino)methyl)piperazin-1-yl)acetyl)-2,6,7,8-tetrahydro-1H-pyrrolo[2,3-e][1,2,4]triazolo[4,3-a]pyridin-1-one], the figures for the IC50 in assay [1] and in assay [2] were 10 nM and 5.1 nM, respectively.

For the molecule `C[C@@H]1CN(CC(=O)N2CC(C)(C)c3c2cc(Cc2ccc(F)cc2)c2nn(CC(C)(C)O)c(=O)n32)[C@@H](CN2CCN(C3COC3)C[C@H]2C)CN1` [Compound 267, 4-(4-fluorobenzyl)-2-(2-hydroxy-2-methylpropyl)-8,8-dimethyl-6-(2-((2R,5R)-5-methyl-2-(((R)-2-methyl-4-(oxetan-3-yl)piperazin-1-yl)methyl)piperazin-1-yl)acetyl)-2,6,7,8-tetrahydro-1H-pyrrolo[2,3-e][1,2,4]triazolo[4,3-a]pyridin-1-one], the IC50 in assay [1] is 34 nM; in assay [2], 19.6 nM.

On to `C[C@@H]1CN(CC(=O)N2CC(C)(C)c3c2cc(Cc2ccc(F)cc2)c2nn(Cc4cccc(F)n4)c(=O)n32)[C@@H](CN2CCOC[C@H]2C)CN1` [Compound 219, 4-(4-fluorobenzyl)-2-((6-fluoropyridin-2-yl)methyl)-8,8-di methyl-6-(2-((2R,5R)-5-methyl-2-(((R)-3-methylmorpholino)methyl)piperazin-1-yl)acetyl)-2,6,7,8-tetrahydro-1H-pyrrolo[2,3-e][1,2,4]triazolo[4,3-a]pyridin-1-one], for which the IC50 was 47 nM in assay [1] and 2 nM in assay [2].

As for `C[C@@H]1CN(CC(=O)N2CC(C)(C)c3c2cc(Cc2ccc(F)cc2)c2nc(-c4ccn[nH]4)nn32)[C@@H](CN2CCOC[C@H]2C)CN1` [Compound 247, 1-(4-(4-fluorobenzyl)-8,8-dimethyl-2-(1H-pyrazol-5-yl)-7,8-dihydro-6H-pyrrolo[2,3-e][1,2,4]triazolo[1,5-a]pyridin-6-yl)-2-((2R,5R)-5-methy 1-2-(((R)-3-methylmorpholino)methyl)piperazin-1-yl)ethan-1-one], the IC50 in assay [1] was 4 nM; in assay [2], 6.2 nM.

`C[C@@H]1CN(CC(=O)N2CC(C)(C)c3c2cc(Cc2ccc(F)cc2)c2c(C(N)=O)cnn32)[C@@H](CN2CCOC[C@H]2C)CN1` [Compound 149, 4-(4-fluorobenzyl)-8,8-dimethyl-6-(2-((2R,5R)-5-methyl-2-(((R)-3-methylmorpholino)methyl)piperazin-1-yl)acetyl)-7,8-dihydro-6H-pyrazolo[1,5-a]pyrrolo[2,3-e]pyridine-3-carboxamide]: the IC50 in assay [1] was found to be 100 nM; in assay [2] it was 7 nM.

For the molecule `C[C@@H]1CN(CC(=O)N2CC(C)(C)c3c2cc(Cc2ccc(F)cc2)c2nn(C4CCOCC4)c(=O)n32)[C@@H](CN2CCOC[C@H]2C)CN1` [Compound 190, 4-(4-fluorobenzyl)-8,8-dimethyl-6-(2-((2R,5R)-5-methyl-2-(((R)-3-methylmorpholino)methyl)piperazin-1-yl)acetyl)-2-(tetrahydro-2H-pyran-4-yl)-2,6,7,8-tetrahydro-1H-pyrrolo[2,3-e][1,2,4]triazolo[4,3-a]pyridin-1-one], the IC50 in assay [1] came to 14 nM; in assay [2] it was 3 nM.

Regarding `C[C@@H]1CN(CC(=O)N2CC(C)(C)c3c2cc(C(F)(F)CC2CC2)c2ncnn32)[C@@H](CN2CCOC[C@H]2C)CN1` [Compound 53, 1-(4-(2-cyclopropyl-1,1-difluoroethyl)-8,8-dimethyl-7,8-dihydro-6H-pyrrolo[2,3-e][1,2,4]triazolo[1,5-a]pyridin-6-yl)-2-((2R,5R)-5-methyl-2-(((R)-3-methylmorpholino)methyl)piperazin-1-yl)ethan-1-one], the results for the IC50 in assay [1] and in assay [2] were 130 nM and 60 nM, respectively.

Turning to `C[C@@H]1CN(CC(=O)N2CC(C)(C)c3c2cc(Cc2ccc(F)cc2)c2nn(CC(C)(C)O)c(=O)n32)[C@@H](CN2CCN(CC(F)(F)F)C[C@H]2C)CN1` [Compound 266, 4-(4-fluorobenzyl)-2-(2-hydroxy-2-methylpropyl)-8,8-dim ethyl-6-(2-((2R,5R)-5-methyl-2-(((R)-2-methyl-4-(2,2,2-trifluoroethyl)piperazin-1-yl)methyl)piperazin-1-yl)acetyl)-2,6,7,8-tetrahydro-1H-pyrrolo[2,3-e][1,2,4]triazolo[4,3-a]pyridin-1-one], the IC50 in assay [1] came out at 16 nM; in assay [2] it was 4.9 nM.

Consider `[2H]C([2H])([2H])n1nc2c(Cc3ccc(F)cc3)cc3c(n2c1=O)C(C)(C)CN3C(=O)CN1C[C@@H](C)NC[C@@H]1CN1CCOC[C@H]1C` [Compound 252], for which the IC50 amounted to 32 nM in assay [1] and 5.3 nM in assay [2].

As for `C[C@@H]1CN(CC(=O)N2CC(C)(C)c3c2cc(Cc2ccc(F)cc2)c2nn(CC(C)(C)O)c(=O)n32)[C@@H](CN2CCOCC23CC3)CN1` [Compound 278, 6-(2-((2R,5R)-2-((7-oxa-4-azaspiro[2.5]octan-4-yl)methyl)-5-methylpiperazin-1-yl)acetyl)-4-(4-fluorobenzyl)-2-(2-hydroxy-2-methylpropyl)-8,8-dimethyl-2,6,7,8-tetrahydro-1H-pyrrolo[2,3-e][1,2,4]triazolo[4,3-a]pyridin-1-one], the IC50 in assay [1] came out at 39 nM; in assay [2], 9.7 nM.

On to `C[C@@H]1CN(CC(=O)N2CC(C)(C)c3c2cc(Cc2ccc(F)cc2)c2nn(C4CC(C)(O)C4)c(=O)n32)[C@@H](CN2CCOC[C@H]2C)CN1` (stereo partly drawn) [Compound 272, 4-(4-fluorobenzyl)-2-(3-hydroxy-3-methylcyclobutyl)-8,8-dimethyl-6-(2-((2R,5R)-5-methyl-2-(((R)-3-methylmorpholino)methyl)piperazin-1-yl)acetyl)-2,6,7,8-tetrahydro-1H-pyrrolo[2,3-e][1,2,4]triazolo[4,3-a]pyridin-1-one], for which the IC50 in assay [1] worked out at 21 nM; in assay [2], 2 nM.

In the case of `C[C@@H]1CN(CC(=O)N2CC(C)(C)c3c2cc(Cc2ccc(F)cc2)c2ncnn32)[C@@H](CN2Cc3c(F)cccc3C2=O)CN1` [Compound 99, 4-fluoro-2-(((2R,5R)-1-(2-(4-(4-fluorobenzyl)-8,8-dimethyl-7,8-dihydro-6H-pyrrolo[2,3-e][1,2,4]triazolo[1,5-a]pyridin-6-yl)-2-oxoethyl)-5-methylpiperazin-2-yl)methyl)isoindolin-1-one], the IC50 turned out to be 12 nM in assay [1] and 5 nM in assay [2].

As for `C[C@@H]1CN(CC(=O)N2CC(C)(C)c3c2cc(Cc2ccc(F)cc2F)c2nn(C[C@H]4COCCO4)c(=O)n32)[C@@H](CN2CCOC[C@H]2C)CN1` [Compound 285, 2-(((S)-1,4-dioxan-2-yl)methyl)-4-(2,4-difluorobenzyl)-8,8-dimethyl-6-(2-((2R,5R)-5-methyl-2-(((R)-3-methylmorpholino)methyl)piperazin-1-yl)acetyl)-2,6,7,8-tetrahydro-1H-pyrrolo[2,3-e][1,2,4]triazolo[4,3-a]pyridin-1-one], the results for the IC50 in assay [1] and in assay [2] were 26 nM and 4.6 nM, respectively.

With `C[C@@H]1CN(CC(=O)N2CC(C)(C)c3c2cc(Cc2ccc(F)cc2)c2nc(CO)cn32)[C@@H](CN2CCOC[C@H]2C)CN1` [Example 19, 1-(4-(4-fluorobenzyl)-2-(hydroxymethyl)-8,8-dimethyl-7,8-dihydro-6H-imidazo[1,2-a]pyrrolo[2,3-e]pyridin-6-yl)-2-((2R,5R)-5-methyl-2-(((R)-3-methylmorpholino)methyl)piperazin-1-yl)ethan-1-one], the IC50 in assay [1] is 180 nM; in assay [2], 21 nM.

As to `C[C@@H]1CN(CC(=O)N2CC(C)(C)c3c2cc(Cc2ccc(F)cc2)c2nc(C(N)=O)nn32)[C@@H](CN2CCOC[C@H]2C)CN1` [Example 31, 4-(4-fluorobenzyl)-8,8-dimethyl-6-(2-((2R,5R)-5-methyl-2-(((R)-3-methylmorpholino)methyl)piperazin-1-yl)acetyl)-7,8-dihydro-6H-pyrrolo[2,3-e][1,2,4]triazolo[1,5-a]pyridine-2-carboxamide], the IC50 was 370 nM in assay [1] and 3 nM in assay [2].

On to `C[C@@H]1CN(CC(=O)N2CC(C)(C)c3c2cc(Cc2ccc(F)cc2)c2nc(NC4COC4)nn32)[C@@H](CN2CCOC[C@H]2C)CN1` [Compound 187, 1-(4-(4-fluorobenzyl)-8,8-dimethyl-2-(oxetan-3-ylamino)-7,8-dihydro-6H-pyrrolo[2,3-e][1,2,4]triazolo[1,5-a]pyridin-6-yl)-2-((2R,5R)-5-methyl-2-(((R)-3-methylmorpholino)methyl)piperazin-1-yl)ethan-1-one], for which the IC50 in assay [1] came out at 8 nM; in assay [2], 6 nM.
